Values quoted from earlier work in article PMC4763008, “Selective Inhibition of Bakuchicin Isolated from Psoralea corylifolia on CYP1A in Human Liver Microsomes” (Evidence-based Complementary and Alternative Medicine : eCAM, 2016).

Legend:
CYP1A [1] = molecular target: T1, CYP1A (Homo sapiens, UniProt P05177); settings: human liver microsomes ref 17; cited from earlier work
T1 sequence (P05177 2-516): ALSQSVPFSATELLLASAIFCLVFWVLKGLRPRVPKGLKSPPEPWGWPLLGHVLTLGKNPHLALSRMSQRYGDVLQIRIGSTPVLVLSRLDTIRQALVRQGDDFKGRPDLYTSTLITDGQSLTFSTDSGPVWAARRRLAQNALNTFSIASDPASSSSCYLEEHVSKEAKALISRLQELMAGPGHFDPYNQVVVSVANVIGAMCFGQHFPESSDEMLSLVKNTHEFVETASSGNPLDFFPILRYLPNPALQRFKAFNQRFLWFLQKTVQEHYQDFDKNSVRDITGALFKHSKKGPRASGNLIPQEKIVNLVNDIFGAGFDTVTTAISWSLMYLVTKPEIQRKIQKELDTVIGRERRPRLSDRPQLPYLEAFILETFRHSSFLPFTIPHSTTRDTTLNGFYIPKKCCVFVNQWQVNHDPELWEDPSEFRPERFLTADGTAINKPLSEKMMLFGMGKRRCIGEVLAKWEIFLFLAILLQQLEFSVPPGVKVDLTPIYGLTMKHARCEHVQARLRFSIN

CYP1A [2] = settings: rat liver microsomes ref 17; cited from earlier work

Compound | type of inhibitor (CYP1A [1]) | type of inhibitor (CYP1A [2])
O=c1ccc2ccc3occc3c2o1 [isopsoralen] | reversible and time-dependent inhibitor | reversible and time-dependent inhibitor
O=c1ccc2cc3ccoc3cc2o1 [psoralen] | reversible and time-dependent inhibitor | reversible and time-dependent inhibitor
